Measurements from patent US6709649B1, “RANTES derived peptides with anti-HIV activity” (Fondazione Centro San Raffaele Del Monte Tabor, priority 1998, dated 2004).

What was measured:
[1] = test system: CCR5-dependent HIV-1BaL strain; assay: "cell-free" acute infection test (growth of HIV-1 in pre-activated primary mononuclear cells, p24 antigen); type: cell-based; settings: at the tested doses
From the text: Some peptides of the invention have been tested to verify their inhibitory activity against HIV virus-1. Two different tests have been used: the “cell-free ” acute infection test and the test of inhibition of the formation of syncitia. The first test evaluates the growth of HIV-1 in primary mononuclear cells pre-activated in vitro and is closer to the natural model of infection. On the other hand, the test of syncitia inhibition evaluates the capability of an inhibitor to inhibit the membrane fusion induced by HIV and it makes use of cells of a continuous line T CD4+ (PM1) chronically infected with an HIV-1 CCR5-dependent (PM1BaL) strain. In both tests, cells were pre-treated with the peptides before exposition to the virus or to 5 the infected cells. Scalar concentrations for each peptide have been tested to calculate the 50% inhibitory dose (ID50), i.e. the dose capable of reducing by 50% the values of the untreated controls. The ID50 values (expressed as micromolar values) of different peptides in the acute infection test are illustrated in the following Table:
The ability of the mutants obtained as described in Example 2, to inhibit the infection by the prototypic macrophage-tropic HIV-1BaL strain, was evaluated in primary cultures of activated mononuclear cells from peripheral blood. The procedure used to infect PBL and to evaluate the production of p24 antigen is described in literature (Scarlatti et al., Nat. Med. November 3:11 1259-65, 1997).

[2] = test system: HIV-1 CCR5-dependent (PM1BaL) strain; assay: test of inhibition of the formation of syncitia (PM1 cells chronically infected with HIV-1BaL); type: cell-based; settings: PM1 line infected by HIV-1BaL
From the text: Some peptides of the invention have been tested to verify their inhibitory activity against HIV virus-1. Two different tests have been used: the “cell-free ” acute infection test and the test of inhibition of the formation of syncitia. The first test evaluates the growth of HIV-1 in primary mononuclear cells pre-activated in vitro and is closer to the natural model of infection. On the other hand, the test of syncitia inhibition evaluates the capability of an inhibitor to inhibit the membrane fusion induced by HIV and it makes use of cells of a continuous line T CD4+ (PM1) chronically infected with an HIV-1 CCR5-dependent (PM1BaL) strain. In both tests, cells were pre-treated with the peptides before exposition to the virus or to 5 the infected cells. Scalar concentrations for each peptide have been tested to calculate the 50% inhibitory dose (ID50), i.e. the dose capable of reducing by 50% the values of the untreated controls. The ID50 values (expressed as micromolar values) of different peptides in the acute infection test are illustrated in the following Table: […]

| Substance | capability to inhibit the acute infection (in words) [1] | capability to inhibit the formation of syncitia (in words) [2] |
| --- | --- | --- |
| Ace-FAYIARPLPRAHIKEYFY-NH2 (Ac-FAYIARPLPRAHIKEYFY-NH2) [Peptide 1] | marked increase in the capability to, inhibit the acute infection | increased capability to inhibit the formation of syncitia |
| YFYTSGKCSNPA [RANTES peptide used as control] | no antiviral activity | – |
| YTSGKCSNPAVV [B, RANTES peptide used as control] | no antiviral activity | – |
| Ace-CFAYIARPLPRAHIKEYFY-NH2 [Peptide 2] | marked increase in the capability to, inhibit the acute infection | increased capability to inhibit the formation of syncitia |
| SGKCSNPAVVFV [RANTES peptide used as control] | no antiviral activity | – |
